Laboratory results: patent US12422427B2, “Compounds for treatment of diseases and methods of screening therefor” (Max-Planck-Gesellschaft zur Förderung der Wissenschaften …, priority 2018, dated 2025)

Tests used:
[1] = test system: HeLa cells expressing FUS GFP; test: HeLa cell compound dose responses (FUS GFP, arsenate stress); assay type: cell-based
[2] = test system: EWSR1, TIAL1, PABPC1, G3BP1; test: Panel of HeLa lines expressing GFP-labelled stress granule proteins, arsenate stress; assay type: cell-based; conditions: 1 mM arsenate, 10 μM compound
Procedure: It was anticipated that a useful therapeutic would prevent all PLD-containing stress granule proteins from localising to stress granules. The inventors used 1 mM arsenate to stress a panel of HeLa cell lines expressing GFP fusions of stress granule proteins (EWSR1, TIAL1, PABPC1, G3BP1) with either no treatment or 10 μM lipoic acid or lipoamide.
Compound effects were assessed under a variety of conditions in HeLa or iPS cells expressing wild-type or P525L FUS GFP by live cell imaging. Different combinations of 1 h pre-treatment compound or pre-stress with arsenate followed by 1 h treatment with compound and/or stress with arsenate. Unless otherwise indicated, cells were pre-treated for 1 h using 10 μM compound from 10 mM stock in DMSO (or an equal volume of DMSO control) then stressed for 1 h with 1 mM potassium arsenate still in the presence of compound. GFP fluorescence was imaged by widefield epifluorescence using an inverted Olympus IX71 microscope with an Olympus 100× NA 1.4 Plan Apo oil immersion objective and a CoolSNAP HQ CCD camera (Photometrics), using a DeltaVision climate control unit (37° C., 5% CO2) (Applied Precision). The kinetics of pre-stress followed by treatment was analysed from images captured at 2 min intervals for 100 min, for single time points images were captured after 1 h unless otherwise indicated.

[3] = test system: HeLa cells expressing FUS GFP; test: Stress granule formation in HeLa FUS GFP cells under different stresses; assay type: cell-based; conditions: 10 μM; mitochondrial (rotenone), hyperosmotic (sorbitol) or arsenate stress
Procedure: The stressor, arsenate, will react with the thiol groups of lipoamide. Therefore, to exclude the possibility that lipoamide is acting only by removing the stressor, so it was further tested whether lipoic acid can prevent stress granule formation triggered by other stresses than arsenate (an oxidative) stress: Mitochondrial electron transport chain inhibition (rotenone), heat stress (42° C.), hyperosmotic stress (sorbitol, a non-metabolisable sugar), glycolysis inhibition ([…] in the absence of glucose) or serum starvation.
Various cellular stresses were achieved by replacing 1 h 1 mM potassium arsenate treatment with other conditions: 100 μM rotenone (R8875, Sigma Aldrich) from a 1 M stock in DMSO for 2 h (mitochondrial stress). […] Sorbitol (S1876, Sigma Aldrich) from a 4 M stock in H2O for 1 h (osmotic stress). 42° C. in normal growth medium for 30 m (heat stress). […] Appropriate solvent controls were used.

[4] = target: T1, FUS GFP (Homo sapiens, UniProt P35637); test: Salt (KCl) sensitivity of FUS GFP droplet formation in vitro; assay type: biochemical; conditions: 100 μM compound, 2.8 μM FUS GFP
T1 construct: His MBP (N, cleaved yes); made in house; host or cells: baculovirus/insect cell expression system
T1 sequence (P35637 1-526): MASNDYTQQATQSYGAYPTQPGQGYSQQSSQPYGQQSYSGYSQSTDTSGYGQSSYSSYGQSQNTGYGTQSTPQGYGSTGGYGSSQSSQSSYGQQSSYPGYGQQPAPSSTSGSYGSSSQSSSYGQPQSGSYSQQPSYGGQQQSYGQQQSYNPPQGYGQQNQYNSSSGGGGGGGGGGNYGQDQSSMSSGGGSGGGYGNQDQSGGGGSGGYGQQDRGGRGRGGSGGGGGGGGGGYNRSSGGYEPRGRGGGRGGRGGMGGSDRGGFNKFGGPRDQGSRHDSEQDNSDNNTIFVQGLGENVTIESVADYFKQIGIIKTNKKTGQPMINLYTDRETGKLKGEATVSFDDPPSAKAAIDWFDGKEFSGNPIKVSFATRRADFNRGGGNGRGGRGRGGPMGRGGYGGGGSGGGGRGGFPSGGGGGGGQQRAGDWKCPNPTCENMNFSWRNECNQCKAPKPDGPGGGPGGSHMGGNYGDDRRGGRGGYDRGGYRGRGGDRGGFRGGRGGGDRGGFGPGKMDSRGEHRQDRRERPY
Procedure: FIG. 6A) Droplets formed by 2.8 μM FUS GFP in vitro with different concentrations of KCl (which inhibits droplet formation) with 100 μM lipoamide, lipoic acid or equivalent DMSO solvent control (1%). Lipoamide and lipoic acid subtly promote droplet formation. FIG. 6B) Effect of lipoamide and lipoic acid on G156E FUS GFP droplet ‘aging’ while shaking, relative to an equivalent DMSO solvent control (0.3%). Both compounds delay fibre formation. FIG. 6C) Representative fluorescence recovery after photobleaching (FRAP) of FUS droplets and fibres formed during the aging shown in FIG. 6B). Aged droplets treated with lipoamide or lipoic acid retain fast FRAP indicating liquidity. FIG. 6D) Quantitation of fluorescence signal intensity illustrated in FIG. 6C). Error bars represent standard deviation.
It was determined if lipoic acid or lipoamide affected the conditions under which FUS would phase separate in vitro. […]
For in vitro solidification assays, FUS GFP in storage buffer was diluted in water to give 10 μM FUS, 50 mM Tris·HCl pH 7.4 and 1 mM DTT in a 20 μl volume in non-binding clear bottom 384 well plates (Greiner Bio-One, 781906). […] Fibre and droplet formation were analysed by widefield epifluorescence using a DeltaVision Elite microscope (GE Healthcare Life Sciences) with a Plan ApoN 60× NA 1.4 oil immersion objective (Olympus) and an sCMOS camera (PCO). […]

[5] = 1 h pre-treatment, 1 h arsenate stress

SMILES	EC50 reducing stress granule number, compared among compounds ([1]; 1 h 1 mM arsenate stress)	localisation of EWSR1, TIAL1, PABPC1, G3BP1 GFP to stress granules [2]	stress granule formation [3]	conditions (KCl concentration) under which FUS phase separates [4]	nuclear/cytoplasm FUS partition, dose response [1, 5]	stress granule number, dose response [1, 5]	EC50 ([1]; Homo sapiens, HeLa FUS GFP, 1 h 1 mM arsenate stress, read-out: cellular EC50)
O=C(O)CCCCC1CCSS1 (racemic) [lipoic acid, 5-(1,2-dithiolan-3-yl)pentanoic acid]	comparable EC50	localised to stress granules in the absence of treatment, and not in the presence	reduced stress granule formation	slightly increasing the minimum KCl concentration at which phase separation would occur			
NC(=O)CCCCC1CCSS1 (racemic) [lipoamide, 5-(1,2-dithiolan-3-yl)pentanamide]	comparable EC50	localised to stress granules in the absence of treatment, and not in the presence	reduced stress granule formation	slightly increasing the minimum KCl concentration at which phase separation would occur	increased nuclear/cytoplasm FUS partition	reducing the number of stress granules	~10 µM
